Assay results reported in paper PMC8592027, “Structure-Guided Design of D-Galactal Derivatives with High Affinity and Selectivity for the Galectin-8 N-Terminal Domain” (ACS Medicinal Chemistry Letters, 2021).
“Also recorded” adds a separate entry of the source.

Experiments:
galectin-3 = target: T1, galectin-3 (Homo sapiens, UniProt P17931); assay: Competitive fluorescence polarization assay, galectin-3; format: binding; settings: mean ± SEM of n = 4–8
T1 construct: made in house
Description: (§1) 1. Competitive fluorescence polarization experiments:
(§2) Human galectins -1, -3, -4N, -4C, -7, -8N, -9N, and -9C were expressed and purified as previously described 30,41. Fluorescence polarisation experiments were performed using the PHERAstar FS plat e reader (software version 2.10 R3), and the fluorescence anisotropy of fluorescein tagged probes was measured by excitation at 485 nm and emission at 520 nm. The specific conditions for galectins -1, -3, -4N, -4C, -7, -8N, -9N, and -9C were kept as report ed30,41,42. The synthesised compounds were dissolved in pure DMSO at 20 mM concentration and diluted in PBS to 3-6 different concentrations, and each concentration was tested in duplicate. The highest inhibitor concentrations tested were 1.5 mM. The

[1] = test system: human peripheral blood mononuclear cells (PBMCs); assay: MTS metabolic activity (cytotoxicity) assay, PBMCs; format: cell-based; settings: concentrations up to 100 μM, 24 hours
Description: (§3) We have investigated the cytotoxicity of the compounds 1, 6a, and 6c via a (3-(4,5-dimethylthiazol-2-yl)-5-(3-carboxymethoxyphenyl)-2-(4-sulfophenyl)-2H-tetrazolium) (MTS) assay in K562 and MDA-MB-231 cancer cell lines to establish the direct antitumor activity of compounds, as well as human peripheral blood mononuclear cells (PBMCs), to evaluate their safety.
(§4) Metabolic activity assay:
(§5) The metabolic activities of the cell lines were determined using the CellTiter 96 Aqueous One Solution cell proliferation assay (MTS Reagents, Promega, Madison, WI, USA), according to the manufacturer instructions. Briefly, the cells were treated with the selected compounds in 0.1% dimethyl sulfoxide (DMSO; vehicle), 0.1% DMSO (control vehicle), or medium (control) and seeded at a cell density of 5,500 cells/well (MDA-MB-231 cells) or 4 x 10^4 cells/well (K562 cells), 7000 cells/well (HepG2 cells) or 1 x 10^5 cells/well (human PBMCs) in duplicates (MDA-MB-231, K562, and […]) or triplicates for HepG2 cells (100 µL), in sterile 96-well plates. For the MDA-MB-231 and HepG2, the cells were left to adhere overnight before adding the compounds. The plates were then incubated for 24 hours (48 hours for HepG2), after which 15 µL of MTS reagent was added to each well. After 30-90 minute of incubation, the absorbance was measured at 492 nm using a microplate reader (Synergy HTX Multi-Mode; BioTek Instruments, Inc., VT, USA). […]
(§6) Bead Array Human inflammatory cytokine Kit (content: IL-1, IL-6, IL-8, IL-10, IL-12p). The flow cytometric analyses were performed on an Attune NxT flow cytometer (Thermo Fisher Scientific, […]
(§7) Data are represented as means ± standard deviation (SD) from three representative independent experiments.
(§8) All experiments were performed at least twice, with average values expressed as means ± SD. All data were analyzed with the statistical software GraphPad Prism 8.0 (GraphPad Software, Inc., CA, USA). by one-way ANOVA followed with Dunnett’s multiple compar ison test. Differences were considered non-significant for p > 0.05, and significant (*) for p < 0.05. […]

[2] = target: T2, galectin-9C (C-terminal domain) (Homo sapiens, UniProt O00182); assay: Competitive fluorescence polarization assay, galectin-9C; format: binding; settings: mean ± SEM of n = 4–8
T2 construct: galectins (N = N-terminal domain, C = C-terminal domain); made in house
Description: as §1, §2

[3] = target: T3, galectin-4N (N-terminal domain) (Homo sapiens, UniProt P56470); assay: Competitive fluorescence polarization assay, galectin-4N; format: binding; settings: mean ± SEM of n = 4–8
T3 construct: galectins (N = N-terminal domain, C = C-terminal domain); made in house
T3 sequence (P56470 19-150 limits assumed): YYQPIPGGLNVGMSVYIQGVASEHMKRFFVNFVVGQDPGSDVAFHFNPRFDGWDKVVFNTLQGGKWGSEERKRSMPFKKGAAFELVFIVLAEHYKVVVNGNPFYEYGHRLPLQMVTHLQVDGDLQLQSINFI
Description: as §1, §2

galectin-1 = target: T4, galectin-1 (Homo sapiens, UniProt P09382); assay: Competitive fluorescence polarization assay, galectin-1; format: binding; settings: mean ± SEM of n = 4–8
T4 construct: made in house
Description: as §1, §2

[4] = target: T5, galectin-9N (N-terminal domain) (Homo sapiens, UniProt O00182); assay: Competitive fluorescence polarization assay, galectin-9N; format: binding; settings: mean ± SEM of n = 4–8
T5 construct: galectins (N = N-terminal domain, C = C-terminal domain); made in house
Description: as §1, §2

galectin-7 = target: T6, galectin-7 (Homo sapiens, UniProt P47929); assay: Competitive fluorescence polarization assay, galectin-7; format: binding; settings: mean ± SEM of n = 4–8
T6 construct: made in house
Description: as §1, §2

K562 cancer cell line = assay: MTS metabolic activity (cytotoxicity) assay, K562; format: cell-based; settings: concentrations 1 to 100 μM, 24 hours
Description: as §3, §4, §5, §6, §7, §8

[5] = test system: MDA-MB-231 cancer cell line; assay: MTS metabolic activity (cytotoxicity) assay, MDA-MB-231; format: cell-based, human; settings: concentrations 1 to 100 μM, 24 hours
Description: as §3, §4, §5, §6, §7, §8

[6] = target: T7, galectin-8N (galectin-8 N-terminal domain) (Homo sapiens, UniProt O00214); assay: Competitive fluorescence polarization assay, galectin-8N; format: binding; settings: for Kd: mean ± SEM of n = 4–8
T7 construct: selective ligand for the galectin-8 N-terminal domain (galectin-8N); made in house
T7 sequence (O00214 19-152 limits assumed): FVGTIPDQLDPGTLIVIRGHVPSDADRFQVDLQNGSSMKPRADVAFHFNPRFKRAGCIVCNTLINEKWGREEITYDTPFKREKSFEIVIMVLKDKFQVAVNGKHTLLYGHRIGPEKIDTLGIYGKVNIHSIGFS
Description: All synthesized D-galactal derivatives had higher binding affinities for galectin-8N than D-galactal 3.
as §1, §2

galectin-2 = target: T8, galectin-2 (Homo sapiens, UniProt P05162); assay: Competitive fluorescence polarization assay, galectin-2; format: binding; settings: mean ± SEM of n = 4–8
T8 sequence (P05162 1-132): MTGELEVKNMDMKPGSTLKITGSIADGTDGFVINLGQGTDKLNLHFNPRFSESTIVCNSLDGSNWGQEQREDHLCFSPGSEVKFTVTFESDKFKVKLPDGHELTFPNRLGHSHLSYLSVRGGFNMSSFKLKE

[7] = target: T9, galectin-4C (C-terminal domain) (Homo sapiens, UniProt P56470); assay: Competitive fluorescence polarization assay, galectin-4C; format: binding; settings: mean ± SEM of n = 4–8
T9 construct: galectins (N = N-terminal domain, C = C-terminal domain); made in house
T9 sequence (P56470 194-323 limits assumed): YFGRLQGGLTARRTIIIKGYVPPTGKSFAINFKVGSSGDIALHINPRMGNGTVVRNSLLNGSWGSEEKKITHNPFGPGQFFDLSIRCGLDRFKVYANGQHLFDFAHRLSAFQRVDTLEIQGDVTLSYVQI
Description: as §1, §2

[8] = target: T7, galectin-8N (galectin-8 N-terminal domain); settings: cited from earlier work
[9] = test system: IL-6 secretion from MDA-MB-231 cells; assay: Multiplexed cytokine assay, IL-6 secretion; format: cell-based, human; settings: 24 hours, vs untreated cells
Description: (§9) Figure 5 Effect of compounds 1 and 6a on the secretion of IL-6 and IL-8 expressed in pg/mL. The effects were measured after incubating the cells with the compounds at 10 and 100 μM. Compounds 1 and 6a reduce the secretion of IL-6 and IL-8 in a dose-dependent manner at 100 and 10 μM. Results shown are means ± SEM of three independent experiments. ns, not significant (p > 0.05); *p < 0.05 versus untreated controls.
(§10) Metabolic activity assay: […]
(§11) Briefly, the cells were treated with the selected compounds in 0.1% dimethyl sulfoxide (DMSO; vehicle), 0.1% DMSO (control vehicle), or medium (control) and seeded at a cell density of 5,500 cells/well (MDA-MB-231 cells) or 4 x 10^4 cells/well (K562 cells), 7000 cells/well (HepG2 cells) or 1 x 10^5 cells/well (human PBMCs) in duplicates (MDA-MB-231, K562, and […]) or triplicates for HepG2 cells (100 µL), in sterile 96-well plates. For the MDA-MB-231 and HepG2, the cells were left to adhere overnight before adding the compounds. The plates were then incubated for 24 hours (48 hours for HepG2), after which 15 µL of MTS reagent was added to each well. […]
(§12) HTX Multi-Mode; BioTek Instruments, Inc., VT, USA).
(§13) Multiplexed cytokine assay:
(§14) MDA-MB-231 cells were seeded in 96-well flat-bottom plates at a density of 2 x 10^4 cells/well in 100 µL of medium and allowed to adhere for 24 hours at 37 °C and 5% CO2. The medium was then replaced by a fresh medium containing the desired concentrations of compounds 1 and 6a, after which the cells were cells incubated again for 24 hours at 37 °C and 5% CO2. Cell-free supernatants were collected and stored at – 80 °C before the analysis. The cytokines secretion was assessed by BD Cytometric Bead Array Human inflammatory cytokine Kit (content: IL-1, IL-6, IL-8, IL-10, IL-12p). The flow cytometric analyses were performed on an Attune NxT flow cytometer (Thermo Fisher Scientific, Waltham, MA, USA). Standard curves were generated using recombinant cytokines provided in the kit, and the data were analyzed with FlowJo software (Tree Star, Inc., Ashland, OR). The results are expressed in pg/mL. Data are represented as means ± standard deviation (SD) from three representative independent experiments.
(§15) All experiments were performed at least twice, with average values expressed as means ± SD. All data were analyzed with the statistical software GraphPad Prism 8.0 (GraphPad Software, Inc., CA, USA). by one-way ANOVA followed with Dunnett’s multiple compar ison test. Differences were considered non-significant for p > 0.05, and significant (*) for p < 0.05.

[10] = test system: IL-8 secretion from MDA-MB-231 cells; assay: Multiplexed cytokine assay, IL-8 secretion; format: cell-based, human; settings: 24 hours, vs untreated cells
Description: as §9, §10, §11, §12, §13, §14, §15

[11] = target: T10, galectin-8C (C-terminal domain) (Homo sapiens, UniProt O00214); assay: Competitive fluorescence polarization assay, galectin-8C; format: binding; settings: mean ± SEM of n = 4–8
T10 construct: galectins (N = N-terminal domain, C = C-terminal domain)
T10 sequence (O00214 187-317 limits assumed): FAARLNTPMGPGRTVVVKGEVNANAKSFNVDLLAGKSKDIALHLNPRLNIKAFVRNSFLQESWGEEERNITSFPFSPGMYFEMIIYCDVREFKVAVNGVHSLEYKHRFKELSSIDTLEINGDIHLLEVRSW

T4 sequence (P09382 whole entry): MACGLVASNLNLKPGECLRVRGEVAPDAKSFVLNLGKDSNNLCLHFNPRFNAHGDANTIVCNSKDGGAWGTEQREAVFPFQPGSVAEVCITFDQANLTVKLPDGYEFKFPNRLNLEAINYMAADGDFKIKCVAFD
T1 sequence (P17931 whole entry): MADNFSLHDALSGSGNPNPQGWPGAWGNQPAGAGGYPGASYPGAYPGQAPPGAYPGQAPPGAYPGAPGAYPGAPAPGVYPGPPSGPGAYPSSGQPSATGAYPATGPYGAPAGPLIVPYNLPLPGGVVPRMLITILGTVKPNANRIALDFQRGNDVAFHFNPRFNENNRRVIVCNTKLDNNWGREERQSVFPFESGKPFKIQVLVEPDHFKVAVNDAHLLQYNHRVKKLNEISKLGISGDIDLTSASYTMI
T2 sequence (O00182 227-355 limits assumed): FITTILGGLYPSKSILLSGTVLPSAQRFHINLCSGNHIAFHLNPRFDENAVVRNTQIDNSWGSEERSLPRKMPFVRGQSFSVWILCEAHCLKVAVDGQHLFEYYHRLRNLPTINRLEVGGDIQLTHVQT
T5 sequence (O00182 17-148 limits assumed): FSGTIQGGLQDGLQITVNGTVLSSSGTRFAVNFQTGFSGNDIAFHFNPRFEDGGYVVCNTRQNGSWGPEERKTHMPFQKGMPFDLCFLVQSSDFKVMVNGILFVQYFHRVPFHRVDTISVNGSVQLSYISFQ
T6 sequence (P47929 whole entry): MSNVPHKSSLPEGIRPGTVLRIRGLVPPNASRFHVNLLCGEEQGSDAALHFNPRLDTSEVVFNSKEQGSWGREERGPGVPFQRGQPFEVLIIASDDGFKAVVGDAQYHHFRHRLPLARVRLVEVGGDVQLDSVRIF

Kd (galectin-3) [µM] | Kd [2] [µM] | Kd [3] [µM] | Kd (galectin-1) [µM] | Kd [4] [µM] | Kd (galectin-7) [µM] | Kd [6] [µM] | Kd (galectin-2) [µM] | Kd [7] [µM] | affinity for galectin-8N relative to that of compound 6a [6] | Kd [11] [µM] | SMILES | direct cytotoxicity (MTS), PBMCs [1] | cell viability (MTS), K562 (K562 cancer cell line) | cell viability (MTS), MDA-MB-231 [5] | selectivity for galectin-8N over galectin-1 [8] | selectivity for galectin-8N over galectin-3 [8] [fold] | reduction in IL-6 secretion ([9]; 10 μM, effect not significant) | reduction of IL-6 secretion ([9]; 100 μM) | reduction in IL-8 secretion ([10]; 10 μM, effect not significant) [%] | reduction of IL-8 secretion ([10]; 100 μM)
550 ± 32 | 2500 | 1400 ± 230 | > 1500 | > 1500 | > 1500 | 46 ± 4 | 990 ± 170 | 1900 ± 400 | – | – | O=C(O)c1ccc2nc(CO[C@@H]3C=CO[C@H](CO)[C@@H]3O)[nH]c2c1 [6c] | lack of direct cytotoxicity | None of the compounds decreased the viability | None of the compounds decreased the viability | – | – | – | – | – | –
1700 ± 40 | > 1500 | 1300 ± 12 | > 1500 | 1000 ± 51 | – | 230 ± 16 | > 1500 | 3700 ± 250 | – | > 1500 | COC(=O)c1ccc2ccc(CO[C@@H]3C=CO[C@H](CO)[C@@H]3O)nc2c1 [compound 8] | – | – | – | – | – | – | – | – | –

The next lines start with the compound.

SMILES | Kd (galectin-3) [µM] | Kd [2] [µM] | Kd [3] [µM] | Kd (galectin-1) [µM] | Kd [4] [µM] | Kd (galectin-7) [µM] | Kd [6] [µM] | Kd (galectin-2) [µM] | Kd [7] [µM] | affinity for galectin-8N relative to that of compound 6a [6] | Kd [11] [µM] | direct cytotoxicity (MTS), PBMCs [1] | cell viability (MTS), K562 (K562 cancer cell line) | cell viability (MTS), MDA-MB-231 [5] | selectivity for galectin-8N over galectin-1 [8] | selectivity for galectin-8N over galectin-3 [8] [fold] | reduction in IL-6 secretion ([9]; 10 μM, effect not significant) | reduction of IL-6 secretion ([9]; 100 μM) | reduction in IL-8 secretion ([10]; 10 μM, effect not significant) [%] | reduction of IL-8 secretion ([10]; 100 μM)
OC[C@H]1Oc2cc(Cc3ccc(F)cc3)cc3c2[C@@H](OC3)[C@H]1O [compound 2] | – | – | – | – | – | – | – | – | – | – | – | – | – | – | about 2 fold | 23 | – | – | – | –
Cn1c(CO[C@@H]2[C@@H](O)[C@@H](Sc3ccc(Cl)c(Cl)c3)O[C@H](CO)[C@@H]2O)nc2ccc(C(=O)O)cc21 [compound 1, reference compound] | – | – | – | – | – | – | – | – | – | about 25 fold | – | lack of direct cytotoxicity | None of the compounds decreased the viability | None of the compounds decreased the viability; also recorded: no effect on the viability | – | – | about 15% | about 65% | ~20 | about 55%
CCOC(=O)c1ccc2c(c1)nc(CO[C@@H]1C=CO[C@H](CO)[C@@H]1O)n2C [5b] | 680 ± 37 | – | – | 840 ± 20 | – | – | 690 ± 53 | – | – | – | 1500 ± 180 | – | – | – | – | – | – | – | – | –
